Measurements taken from patent publication US11739070B2, “C5A receptor modulators” (IDORSIA PHARMACEUTICALS LTD, priority 2018, dated 2023).

Target: T1, C5AR1 (Homo sapiens, UniProt P21730)
T1 construct: host or cells: CHO-K1
T1 sequence (P21730 1-350): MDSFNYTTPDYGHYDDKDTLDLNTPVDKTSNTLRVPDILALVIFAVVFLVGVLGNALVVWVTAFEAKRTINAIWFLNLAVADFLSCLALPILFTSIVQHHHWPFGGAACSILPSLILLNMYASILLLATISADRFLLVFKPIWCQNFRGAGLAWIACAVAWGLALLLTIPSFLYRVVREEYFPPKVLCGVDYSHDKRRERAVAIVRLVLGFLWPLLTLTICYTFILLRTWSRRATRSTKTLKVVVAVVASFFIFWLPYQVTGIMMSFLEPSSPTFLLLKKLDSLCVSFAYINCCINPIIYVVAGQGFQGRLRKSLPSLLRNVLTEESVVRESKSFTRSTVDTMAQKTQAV
Experiment: hC5a DISCO IC50 assay (PathHunter beta-arrestin, antagonist mode)
Type: cell-based
Conditions: CHO-K1 C5AR1 beta-arrestin cell line; antagonist vs 1-10 nM C5a agonist; geometric mean values; read-out: C5aR IC50
Procedure, shortened: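 Antagonist added first, then 1-10 nM C5a agonist; cells incubated 1.5 h at 37 °C. Beta-arrestin signal developed with PathHunter detection reagent, 45 min at RT. IC50 in nmol/l from serial antagonist dilutions, reported as geometric mean of several measurements.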

IC50 [nM] | SMILES
38 | COc1cccc2c1n(Cc1ccccc1C(F)(F)F)c(=O)n2[C@@H]1CCN(c2c(F)cccc2C(C)=O)C1 [Example 90, 1-[(R)-1-(2-Acetyl-6-fluoro-phenyl)-pyrrolidin-3-yl]-4-methoxy-3-(2-trifluoromethyl-benzyl)-1,3-dihydro-benzoimidazol-2-one]
165 | COC(=O)c1cccc2c1n(Cc1ccccc1C(F)(F)F)c(=O)n2[C@@H]1CCN(c2c(F)cccc2C#N)C1 [Example 98, 1-[(R)-1-(2-Cyano-6-fluoro-phenyl)-pyrrolidin-3-yl]-2-oxo-3-(2-trifluoromethyl-benzyl)-2,3-dihydro-1H-benzoimidazole-4-carboxylic acid methyl ester]
27 | COc1cccc2c1n(Cc1ccccc1C(F)(F)F)c(=O)n2C1CN(c2c(C)cccc2F)C1 [Example 215, 1-[1-(2-Fluoro-6-methyl-phenyl)-azetidin-3-yl]-4-methoxy-3-(2-trifluoromethyl-benzyl)-1,3-dihydro-benzoimidazol-2-one]
4480 | COc1ccccc1Cn1c(=O)n([C@@H]2CCN(c3c(F)cccc3C#N)C2)c2ncnc(OC)c21 [Example 105, 3-Fluoro-2-{(R)-3-[6-methoxy-7-(2-methoxy-benzyl)-8-oxo-7,8-dihydro-purin-9-yl]-pyrrolidin-1-yl}-benzonitrile]
23 | [2H]c1ccc(OC)c2c1n(C1CCN(c3c(C)cccc3C)CC1)c(=O)n2Cc1ccccc1C(F)(F)F [Example 3, 1-(1-(2,6-dimethylphenyl)piperidin-4-yl)-4-methoxy-3-(2-(trifluoromethyl)benzyl)-1,3-dihydro-benzoimidazol-2-one-7-d]
65 | COc1cccc2c1n(Cc1ccccc1C(F)(F)F)c(=O)n2[C@@H]1CCN(C(=O)OC(C)C)C1 [Example 61, (R)-3-[4-Methoxy-2-oxo-3-(2-trifluoromethyl-benzyl)-2,3-dihydro-benzoimidazol-1-yl]-pyrrolidine-1-carboxylic acid isopropyl ester]
60 | COc1cccc2c1n(Cc1ccccc1C(F)(F)F)c(=O)n2[C@@H]1CCN(c2c(C)ccnc2C)C1 [Example 66, 1-[(R)-1-(2,4-Dimethyl-pyridin-3-yl)-pyrrolidin-3-yl]-4-methoxy-3-(2-trifluoromethyl-benzyl)-1,3-dihydro-benzoimidazol-2-one]
393 | COc1ccnc2c1n(Cc1ccccc1C(F)(F)F)c(=O)n2[C@@H]1CCN(C(=O)OC(C)(C)C)C1 [Example 43, (R)-3-[7-Methoxy-2-oxo-1-(2-trifluoromethyl-benzyl)-1,2-dihydro-imidazo[4,5-b]pyridin-3-yl]-pyrrolidine-1-carboxylic acid tert-butyl ester]
18 | COc1cccc2c1n(Cc1ccccc1OCC1CC1)c(=O)n2C1CCN(c2c(C)cccc2F)CC1 [Example 224, 3-(2-Cyclopropylmethoxy-benzyl)-1-[1-(2-fluoro-6-methyl-phenyl)-piperidin-4-yl]-4-methoxy-1,3-dihydro-benzoimidazol-2-one]
14 | COc1cccc2c1n(Cc1cncnc1C(C)C)c(=O)n2[C@@H]1CCN(c2c(C)cccc2F)C1 [Example 186, 1-[(R)-1-(2-Fluoro-6-methyl-phenyl)-pyrrolidin-3-yl]-3-(4-isopropyl-pyrimidin-5-ylmethyl)-4-methoxy-1,3-dihydro-benzoimidazol-2-one]
36 | COc1ccccc1Cn1c(=O)n([C@@H]2CCN(c3c(C)cccc3C)C2)c2cccc(OC)c21 [Example 67, 1-[(R)-1-(2,6-Dimethyl-phenyl)-pyrrolidin-3-yl]-4-methoxy-3-(2-methoxy-benzyl)-1,3-dihydro-benzoimidazol-2-one]
179 | CCOC(=O)C1CN(C(=O)OC(C)(C)C)CCC1n1c(=O)n(Cc2ccccc2C(F)(F)F)c2c(OC)cccc21 (stereo not drawn) [Example 164, 4-[4-Methoxy-2-oxo-3-(2-trifluoromethyl-benzyl)-2,3-dihydro-benzoimidazol-1-yl]-piperidine-1,3-dicarboxylic acid 1-tert-butyl ester 3-ethyl ester]
3910 | Cc1cccc(F)c1N1CC[C@@H](n2c(=O)n(Cc3ccccc3C(F)(F)F)c3c(OC4CCN(C)C4)nccc32)C1 (stereo partly drawn) [Example 130, 1-[(R)-1-(2-Fluoro-6-methyl-phenyl)-pyrrolidin-3-yl]-4-(1-methyl-pyrrolidin-3-yloxy)-3-(2-trifluoromethyl-benzyl)-1,3-dihydro-imidazo[4,5-c]pyridin-2-one]
22 | COc1cccc2c1n(Cc1cnccc1C(C)C)c(=O)n2C1CCN(c2c(C)cccc2F)CC1 [Example 181, 1-[1-(2-Fluoro-6-methyl-phenyl)-piperidin-4-yl]-3-(4-isopropyl-pyridin-3-ylmethyl)-4-methoxy-1,3-dihydro-benzoimidazol-2-one]
2130 | COc1cccc2c1n(Cc1ccccc1C(F)(F)F)c(=O)n2[C@@H]1CCN(c2c(F)cccc2CN(CCO)CCO)C1 [Example 141, 1-[(R)-1-(2-{[Bis-(2-hydroxy-ethyl)-amino]-methyl}-6-fluoro-phenyl)-pyrrolidin-3-yl]-4-methoxy-3-(2-trifluoromethyl-benzyl)-1,3-dihydro-benzoimidazol-2-one]
284 | COc1cccc2c1n(Cc1ccccc1C(F)(F)F)c(=O)n2C1CCN(Cc2ccc(Cl)cc2Cl)CC1 [Example 5, 1-[1-(2,4-Dichloro-benzyl)-piperidin-4-yl]-4-methoxy-3-(2-trifluoromethyl-benzyl)-1,3-dihydro-benzoimidazol-2-one]
308 | COc1cccc2c1n(Cc1cncnc1C(F)(F)F)c(=O)n2C1CCN(c2c(F)cccc2C#N)CC1 [Example 117, 3-Fluoro-2-{4-[4-methoxy-2-oxo-3-(4-trifluoromethyl-pyrimidin-5-ylmethyl)-2,3-dihydro-benzoimidazol-1-yl]-piperidin-1-yl}-benzonitrile]
18 | COc1nccc2c1n(Cc1ccccc1C(F)(F)F)c(=O)n2[C@@H]1CCN(c2c(C)cccc2C)C1 [Example 41, 1-[(R)-1-(2,6-Dimethyl-phenyl)-pyrrolidin-3-yl]-4-methoxy-3-(2-trifluoromethyl-benzyl)-1,3-dihydro-imidazo[4,5-c]pyridin-2-one]
1480 | COCCNC(=O)c1cccc2c1n(Cc1ccccc1C(F)(F)F)c(=O)n2[C@@H]1CCN(c2c(F)cccc2C#N)C1 [Example 194, 1-[(R)-1-(2-Cyano-6-fluoro-phenyl)-pyrrolidin-3-yl]-2-oxo-3-(2-trifluoromethyl-benzyl)-2,3-dihydro-1H-benzoimidazole-4-carboxylic acid (2-methoxy-ethyl)-amide]
36 | COc1cccc2c1n(Cc1ccccc1C(F)(F)F)c(=O)n2C1CCCN(c2c(C)cccc2C)CC1 (stereo not drawn) [Example 185, 1-[1-(2,6-Dimethyl-phenyl)-azepan-4-yl]-4-methoxy-3-(2-trifluoromethyl-benzyl)-1,3-dihydro-benzoimidazol-2-one]
157 | COc1cccc2c1n(Cc1ccccc1C(F)(F)F)c(=O)n2[C@@H]1CCN(c2c(Cl)c(C)nn2C)C1 [Example 80, 1-[(R)-1-(4-Chloro-2,5-dimethyl-2H-pyrazol-3-yl)-pyrrolidin-3-yl]-4-methoxy-3-(2-trifluoromethyl-benzyl)-1,3-dihydro-benzoimidazol-2-one]
544 | COc1cccc2c1n(Cc1nnccc1C)c(=O)n2[C@@H]1CCN(c2c(C)cccc2F)C1 [Example 174, 1-[(R)-1-(2-Fluoro-6-methyl-phenyl)-pyrrolidin-3-yl]-4-methoxy-3-(4-methyl-pyridazin-3-ylmethyl)-1,3-dihydro-benzoimidazol-2-one]
205 | COc1cccc2c1n(Cc1ccccc1C(F)(F)F)c(=O)n2C1CCCN(C(=O)OC(C)(C)C)C1 (stereo not drawn) [Example 214, 3-[4-Methoxy-2-oxo-3-(2-trifluoromethyl-benzyl)-2,3-dihydro-benzoimidazol-1-yl]-piperidine-1-carboxylic acid tert-butyl ester]
10 | COc1cccc2c1n(Cc1nccnc1C(F)(F)F)c(=O)n2C1CCN(c2c(C)cccc2F)CC1 [Example 168, 1-[1-(2-Fluoro-6-methyl-phenyl)-piperidin-4-yl]-4-methoxy-3-(3-trifluoromethyl-pyrazin-2-ylmethyl)-1,3-dihydro-benzoimidazol-2-one]
2260 | COc1cccc2c1n(Cc1ccccc1C(F)(F)F)c(=O)n2[C@@H]1CCN(c2c(F)cccc2CN2CCC(O)CC2)C1 [Example 134, 1-{(R)-1-[2-Fluoro-6-(4-hydroxy-piperidin-1-ylmethyl)-phenyl]-pyrrolidin-3-yl}-4-methoxy-3-(2-trifluoromethyl-benzyl)-1,3-dihydro-benzoimidazol-2-one]
16 | COc1cccc2c1n(Cc1ccccc1C(F)(F)F)c(=O)n2C1CCN(c2c(F)cccc2C=O)C(C)C1 (stereo not drawn) [Example 145, 3-Fluoro-2-{4-[4-methoxy-2-oxo-3-(2-trifluoromethyl-benzyl)-2,3-dihydro-benzoimidazol-1-yl]-2-methyl-piperidin-1-yl}-benzaldehyde]
6 | COc1cccc2c1n(Cc1cnccc1C(F)(F)F)c(=O)n2[C@@H]1CCN(c2c(C)cccc2F)C1 [Example 203, 1-[(R)-1-(2-Fluoro-6-methyl-phenyl)-pyrrolidin-3-yl]-4-methoxy-3-(4-trifluoromethyl-pyridin-3-ylmethyl)-1,3-dihydro-benzoimidazol-2-one]
